Series [1] can be described thus: Hepatic microsome stability, mouse. Format: in vitro ADME. The text has this: The microsomal stability assay is commonly used to rank compounds according to their metabolic stability. This assay addresses the pharmacologic question of how long the parent compound will remain circulating in plasma within the body.
A short description of another series: Plasma stability, mouse. It counts as in vitro ADME. An excerpt: (§1) Plasma stability is a measure of the stability of small molecules and peptides in plasma and is an important parameter, which can strongly influence the in vivo efficacy of a test compound. Drug candidates are exposed to enzymatic processes (proteinases, esterases) in plasma, and they can undergo intramolecular rearrangement or bind irreversibly (covalently) to proteins.

A short description of a further series: Plasma stability, human. Format: in vitro ADME.
Text: as §1

The target in the next series is T1, FASN thioesterase (Homo sapiens, UniProt P49327).
T1 construct: label the active site of the FASN thioesterase and ACOT4
Kind of series: FP-PEG-TAMRA labeling of recombinant FASN thioesterase. Format: binding. As to conditions: recombinant enzyme, 20 μM final, pH 7.8. As to the method: Additionally, studies were performed to test the selectivity of Compounds 1, 16, 22, and 37 for the FASN thioesterase over its most closely related human homolog, the enzyme called ACOT4 (see FIG. 3). Both proteins were mixed and pretreated with the compound (20 μM final, pH 7.8) before addition of the fluorescent activity probe FP-PEG-TAMRA. Respective fluorescence of the bands was detected on a Hitachi flatbed scanner and a greyscale version used for quantitative analysis using ImageJ. Recombinant forms of each enzyme were incubated with compound 16, compound 1, compound 37, and compound 22. FP-TAMRA was included in this mixture to label the active site of the FASN thioesterase and ACOT4. […] These findings further attest to the high degree of selectivity of compounds 1, 16, 37 and 22 for the FASN thioesterase.

Series [2] can be described thus: Aqueous solubility in pION's buffer. Format: physicochemical.
The nature of a further series: PAMPA permeability. Format: in vitro ADME. As to conditions: for Papp: PAMPA, read-out: PAMPA Permeability, Pe. As to the method: The PAMPA (Parallel Artificial Membrane Permeability Assay) assay was used as an in vitro model of passive, transcellular permeability. An artificial membrane immobilized on a filter was placed between a donor and acceptor compartment. At the start of the test, drug was introduced in the donor compartment. Following the permeation period, the concentration of drug in the donor and acceptor compartments was measured using UV spectroscopy.
A general note: The PAMPA barrier holds no transporters, so it reflects passive diffusion.

Where “and” joins values, the source holds several entries; their conditions need not be identical. Equal values may be shown once. Read-outs that look alike come from different tables or passages of the source.

T1 sequence (P49327 2207-2511 limits assumed): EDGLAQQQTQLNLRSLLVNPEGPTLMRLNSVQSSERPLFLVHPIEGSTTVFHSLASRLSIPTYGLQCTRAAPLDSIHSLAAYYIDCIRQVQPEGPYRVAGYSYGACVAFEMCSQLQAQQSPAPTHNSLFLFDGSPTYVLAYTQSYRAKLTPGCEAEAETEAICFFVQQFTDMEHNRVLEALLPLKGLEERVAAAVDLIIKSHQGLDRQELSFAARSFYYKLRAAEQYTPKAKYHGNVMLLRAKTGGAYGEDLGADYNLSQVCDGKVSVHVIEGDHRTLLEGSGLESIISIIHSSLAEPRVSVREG

As usually defined, the solubility is how much of the substance goes into solution per volume. High values mean a readily soluble substance, low ones a poorly soluble substance. As for `CCC(CC)C(=O)Nc1nc(-c2ccc(S(=O)(=O)N3CCOCC3)cc2)cs1` [Compound 16, 2-Ethyl-N-(4-(4-(morpholinosulfonyl)phenyl)thiazol-2-yl)butanamide], the “Hepatic Microsome Stability (% Remaining at 1 hr)” value in series [1] (Mouse, 1 hr) is 6.37%. The “liver microsome stability” value in series [1] (mouse liver microsomes) was “poor stability”. The “Plasma Stability (% Remaining at 3 hrs)” value in the series “Plasma stability, mouse” (Mouse, 3 hrs) is 100/100%; in the series “Plasma stability, human” (Human, 3 hrs), 100/100%. In addition, the “plasma stability” value is given as “good stability” in “Plasma stability, mouse” (mouse plasma) and “good stability” in the series “Plasma stability, human” (human plasma). The “binding of FP-TAMRA to the active site of the FASN thioesterase” value on FASN thioesterase is recorded as “blocked the binding of FP-TAMRA”. Besides, the solubility was 0.19 µg/mL and 0.45 µM in series [2] (aqueous buffer, pH 5.0); 0.06 µg/mL and 0.14 µM in series [2] (pH 6.2, aqueous buffer); 0.13 µg/mL and 0.31 µM in series [2] (pH 7.4, aqueous buffer). Also, the Papp was determined as 914 ×10⁻⁶ cm/s in “PAMPA permeability” (Donor pH 5.0, Acceptor pH 7.4); 961 ×10⁻⁶ cm/s in the series “PAMPA permeability” (Donor pH 6.2, Acceptor pH 7.4); 653 ×10⁻⁶ cm/s in “PAMPA permeability” (pH 7.4, Donor pH 7.4, Acceptor pH 7.4). The “PAMPA permeability” value in “PAMPA permeability” (across a range of pH of the donor compartment) is listed as “very good permeability”.

Values taken from patent US10071976B2, “Small molecule fatty acid synthase inhibitors” (Sanford Burnham Prebys Medical Discovery Institute, priority 2014, dated 2018).
